Measurements taken from PubChem BioAssay AID2060500 (Molecular Pharmacology Branch, DTP, NCI, 2025).

System: 596521-263-R-J1-PDC complex spheroids, viability % of control
Test: Anticancer human tumor 596521-263-R-J1-PDC patient-derived soft tissue sarcoma cell line growth inhibition [GQUAD]
Conditions: for IC50: curve of first compound; for viability, T/C: stronger effect = lower value; active = viability on the fitted dose curve at most 10% of control; inactive = the rest
Excerpt: DNA G-quadruplex Stabilizer Agents in Combinations in Complex Spheroids
A high-throughput screen of multi-cell type tumor spheroids was designed to identify active combinations of DNA G-quadruplex stabilizer agents and targeted small molecules. Complex spheroids include a stromal component modeled by human endothelial cells (HUVEC) and fibroblasts modeled by human mesenchymal stem cells (MSCs). The concentration ranges selected for each drug and investigational agent were based upon clinically achievable concentrations if the clinical Cmax of the agent was known.
Compounds. The drugs and investigational agents: pidnarulex (CX-5461; NSC782164), APTO-253 (NSC789042), BRACO-19 (NSC847499), peposertib (NSC802822), ceralasertib (NSC780249), elimusertib (NSC800525), camonsertib (NSC841442), AZD-1390 (NSC803789), olaparib (NSC753686), talazoparib (NSC767125), ART-558 (NSC835418), sotorasib (NSC818433), MRTX-1133 (NSC836407), SN-38 (NSC673596), topotecan (NSC609699), etoposide (NSC141540), doxorubicin (NSC123127), gemcitabine (NSC613327), 5-fluorouracil (NSC19893), paclitaxel (NSC125973), vemurafenib (NSC761431), panobinostat (NSC761190), R-306465 (JNJ-16241199; NSC773264), adavosertib (NSC754352), TP-3654 (NSC805149), carboplatin (NSC241240), KSQ-4279 (NSC840948), and staurosporine (NSC755774) were obtained from the National Cancer Institute (NCI) Developmental Therapeutics Program Chemical Repository (34). The FDA-approved anticancer drug set is available from the NCI Developmental Therapeutics Program. […] The stock solutions were prepared in dimethyl sulfoxide (DMSO, Sigma-Aldrich, St. Louis, MO, cat. D2650) at 800-fold the tested concentration and stored at -70 degrees C prior to their use. All drugs and investigational agents were tested over a range starting from a high concentration at or near the clinical Cmax and decreasing in half-log increments. If the clinical Cmax for an agent had not been determined, the highest concentration tested was 10 microM.
2.3 Cell Culture. All cells were maintained in an incubator at 37 degrees C and 5% CO2 with 95% humidity. The PDC lines were cultured according to standard operating procedures established by the NCI PDMR. All PDCs were thawed and cultured in Matrigel-coated flasks prepared with a working solution of 1X Ham's F-12 nutrient mix, without supplementation (Invitrogen, cat. 11765054), 100 U/mL penicillin-streptomycin (Invitrogen, cat. 15140122), and 2.5% Matrigel (Corning Inc., cat. 354248) for the first three passages. The 857933-349-R-J2-PDC line was cultured in 6C/Colon 1B media, which includes advanced DMEM/F-12 (Thermo Fisher Scientific, cat. 12634028), 10 mM HEPES (Thermo Fisher Scientific, cat. 15630080), 1X GlutaMAX supplement (Thermo Fisher Scientific, cat. 35050061), 0.1 mg/mL primocin (InvivoGen, cat. ant-pm-2), 10% defined fetal bovine serum, heat inactivated (HyClone Laboratories Inc., cat. SH30070.03HI), 50% L-WRN conditioned media (ATCC, cat. CRL-3276), 1.25 mM N-Acetyl-L-cysteine (Sigma-Aldrich, cat. A9165), 10 mM nicotinamide (Sigma-Aldrich, cat. N0636), 1X B-27 supplement (Thermo Fisher Scientific, cat. 17504044), 1X N-2 supplement (Thermo Fisher Scientific, cat. 17502048), 10 microM Y-27632 dihydrochloride (Tocris Bioscience, cat. 1254), and 50 ng/mL human EGF recombinant protein (Thermo Fisher Scientific, cat. PHG0311). The 485176-168-R4-J1-PDC line was cultured in Panc media, which includes all 6C/Colon 1B media components plus 100 ng/mL human FGF-10 (Thermo Fisher Scientific, cat. 100-26), 500 nM SB-431542 (Selleckchem, cat. S1067), and gastrin (Tocris, cat. 3006).
[…]

[1] = second compound 0.0316 µM, first compound 0.0316 µM
[2] = second compound 0.0316 µM, first compound 0.1 µM
[3] = second compound 0.0316 µM, first compound 0.316 µM
[4] = second compound 0.0316 µM, first compound 1 µM
[5] = second compound 0.0316 µM, first compound 3.16 µM
[6] = second compound 0.0316 µM, first compound 10 µM
[7] = second compound 0.1 µM, first compound 0.0316 µM
[8] = second compound 0.1 µM, first compound 0.1 µM
[9] = second compound 0.1 µM, first compound 0.316 µM
[10] = second compound 0.1 µM, first compound 1 µM
[11] = second compound 0.1 µM, first compound 3.16 µM
[12] = second compound 0.1 µM, first compound 10 µM
[13] = second compound 0.316 µM, first compound 0.0316 µM
[14] = second compound 0.316 µM, first compound 0.1 µM
[15] = second compound 0.316 µM, first compound 0.316 µM
[16] = second compound 0.316 µM, first compound 1 µM
[17] = second compound 0.316 µM, first compound 3.16 µM
[18] = second compound 0.316 µM, first compound 10 µM
[19] = second compound 1 µM, first compound 0.0316 µM
[20] = second compound 1 µM, first compound 0.1 µM
[21] = second compound 1 µM, first compound 0.316 µM
[22] = second compound 1 µM, first compound 1 µM
[23] = second compound 1 µM, first compound 3.16 µM
[24] = second compound 1 µM, first compound 10 µM
[25] = second compound 3.16 µM, first compound 0.0316 µM
[26] = second compound 3.16 µM, first compound 0.1 µM
[27] = second compound 3.16 µM, first compound 0.316 µM
[28] = second compound 3.16 µM, first compound 1 µM
[29] = second compound 3.16 µM, first compound 3.16 µM
[30] = second compound 3.16 µM, first compound 10 µM
[31] = second compound 10 µM, first compound 0.0316 µM
[32] = second compound 10 µM, first compound 0.1 µM
[33] = second compound 10 µM, first compound 0.316 µM
[34] = second compound 10 µM, first compound 1 µM
[35] = second compound 10 µM, first compound 3.16 µM
[36] = second compound 10 µM, first compound 10 µM
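Note: spheroids exposed to drugs for 7 days before viability reading.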

COc1cccc2c1C(=O)c1c(O)c3c(c(O)c1C2=O)CC(O)(C(=O)CO)CC3OC1CC(N)C(O)C(C)O1 (centres undefined) + Cc1[nH]c2ccc(F)cc2c1-c1nc2c3cccnc3c3ncccc3c2[nH]1
802 nM: IC50 (second compound 0.316 µM)
965 nM: IC50 (second compound 3.16 µM)
655 nM: IC50 (second compound 0.1 µM)
active: viability, T/C [6] 3.55% | viability, T/C [12] 4.66% | viability, T/C [18] 3.9% | viability, T/C [24] 4.37% | viability, T/C [30] 3.86% | viability, T/C [36] 3.33%
578 nM: IC50 (second compound 1 µM)
719 nM: IC50 (second compound 0.0316 µM)
700 nM: IC50 (second compound 10 µM)
inactive: viability, T/C [1] 98% | viability, T/C [2] 76.6% | viability, T/C [3] 64% | viability, T/C [4] 48.9% | viability, T/C [5] 26.6% | viability, T/C [7] 93.8% | viability, T/C [8] 77% | viability, T/C [9] 57.9% | viability, T/C [10] 44.9% | viability, T/C [11] 29.7% | viability, T/C [13] 112% | viability, T/C [14] 70.3% | viability, T/C [15] 68% | viability, T/C [16] 54.5% | viability, T/C [17] 27.1% | viability, T/C [19] 96.5% | viability, T/C [20] 66.5% | viability, T/C [21] 59.2% | viability, T/C [22] 50.4% | viability, T/C [23] 25.6% | viability, T/C [25] 82.7% | viability, T/C [26] 68.9% | viability, T/C [27] 63.2% | viability, T/C [28] 54.9% | viability, T/C [29] 25.7% | viability, T/C [31] 75.1% | viability, T/C [32] 62.4% | viability, T/C [33] 62.6% | viability, T/C [34] 45.9% | viability, T/C [35] 25.6%

Cc1cccc(N(C)C(=O)C2C(O)CCN2c2nc(C)cc(C(F)(F)F)c2C#N)c1 (centres undefined) + Cc1[nH]c2ccc(F)cc2c1-c1nc2c3cccnc3c3ncccc3c2[nH]1
> 10000 nM: IC50 (second compound 0.0316 µM) | IC50 (second compound 0.1 µM) | IC50 (second compound 0.316 µM) | IC50 (second compound 1 µM) | IC50 (second compound 3.16 µM) | IC50 (second compound 10 µM)
inactive: viability, T/C [1] 106% | viability, T/C [2] 93.3% | viability, T/C [3] 92.7% | viability, T/C [4] 101% | viability, T/C [5] 98.1% | viability, T/C [6] 91.6% | viability, T/C [7] 98.7% | viability, T/C [8] 99.1% | viability, T/C [9] 112% | viability, T/C [10] 85.9% | viability, T/C [11] 104% | viability, T/C [12] 95.1% | viability, T/C [13] 102% | viability, T/C [14] 100% | viability, T/C [15] 91.4% | viability, T/C [16] 88.4% | viability, T/C [17] 110% | viability, T/C [18] 93.7% | viability, T/C [19] 91.4% | viability, T/C [20] 89.4% | viability, T/C [21] 93.9% | viability, T/C [22] 99.4% | viability, T/C [23] 109% | viability, T/C [24] 91.1% | viability, T/C [25] 85.8% | viability, T/C [26] 92.5% | viability, T/C [27] 83.1% | viability, T/C [28] 88% | viability, T/C [29] 93.4% | viability, T/C [30] 83.1% | viability, T/C [31] 70.4% | viability, T/C [32] 73.5% | viability, T/C [33] 83.8% | viability, T/C [34] 75% | viability, T/C [35] 83.7% | viability, T/C [36] 91.4%
